Consider two compounds from patent publication US20100113590A1, “ADAM INHIBITOR” (Shiseido Company, Ltd., priority 2007, published 2010).

The assay concerns ADAM. In words: Inhibition of PMA-induced TNF-α release from U937 cells (index of ADAM inhibition), hTNF-α ELISA. Format: cell-based, human. To be noted: for Inhibition rate (%): U937 cells, 30 min pretreatment, 10 nM PMA for 6 hours, released hTNF-α by ELISA; for suppressing effect on HB-EGF release: statement in words summarising the screening, suggests inhibition of ADAM activity. On the procedure: For the ADAM inhibiting effect, the TNF-α which is cut out to be released from the membrane of the U937 cell derived from the human lymphoma through the action of ADAM was used as an index, and the inhibiting effect on the TNF-α release by the agents was assessed. A new ADAM inhibitor was explored by screening different compounds according to the present method.
The U937 cells derived from the human lymphoma were seeded to the 48-well plate adjusting the number of the cells to 1×10^5 cells/0.25 ml and cultured at 37° C. overnight. The medium which contained 5 μg/ml or 30 μg/ml of an ascorbic acid derivative was added and incubated at 37° C. for 30 min. to be pretreated. 10 nM PMA (phorbol ester: 12-O-tetradecanoylphorbol-acetate; Sigma P8139) was then added and cultured at 37° C. for 6 hours. After completion of the treatment, the supernatant of the culture was collected, centrifuged and the cell-free supernatant was cryopreserved at −20° C. The assay of the released hTNF-α was performed using the hTNF-α Duo-Set ELISA kit from R & D Ltd. Each supernatant of the culture was diluted 5-folds with the medium, then […] each was added to the 96-well plate and measured according to the protocol of R & D Ltd. The absorbance at 450-570 nm of each well was measured by the measurement kit and concentrations of the samples were obtained from the standard curve. The inhibition rates were calculated according to the following equation wherein A0 is the absorbance of 0% inhibiting control (the medium containing only PMA), A100 is the absorbance of 100% inhibiting control (only the medium) and AS is the absorbance of the sample.
The inhibition rate (%)=(A0−AS)/(A0−A100)×100
In general terms: An ELISA detects its analyte on a solid surface through an enzyme-linked reagent.

On to `CCCCCCCCCCCCOC1=C(O)[C@@H]([C@@H](O)CO)OC1=O` [2-O-dodecyl ascorbic acid], for which the “suppressing effect on HB-EGF release” value is on record as “high suppressing effect”. Moreover, the “Inhibition rate (%)” value (5 μg/mL) is given as 18.25%. For the same compound, under “30 μg/mL”, the “Inhibition rate (%)” value is reported as 60.07%.
For `CCCCCCCCCCCCCCCCCCOC1=C(O)[C@@H]([C@@H](O)CO)OC1=O` [2-O-octadecyl ascorbic acid], the “suppressing effect on HB-EGF release” value was “high suppressing effect”. In addition, for the setting “5 μg/mL”, the “Inhibition rate (%)” value stood at 15.19%. Further, under “30 μg/mL”, the “Inhibition rate (%)” value is reported as 82.70%.
